“And” between values parts separate entries of the source, which are not always exact repeats. Equal values may be shown once.
Tests used:
[1] = parameters: method as in PMID 20692328; conditions: cited from earlier work
[2] = n-octanol/water partition coefficient by shake flask method; format: physicochemical; conditions: for log PO/W: n-octanol/water, shake flask, 25 °C
Protocol: The n-octanol/water partition coefficient (log PO/W) was determined for ferulic acid and its derivatives by shake flask method. n-Octanol saturated with water and water saturated with n-octanol were prepared at 25 °C, 24 h prior to their use in the experiments. Then, a sample of 10 mg of compound was weighed with the accuracy of 0.01 mg in a 16 cm^3 screwed vial and dissolved in 5 cm^3 of n-octanol. Next, 5 cm^3 of water was added to the vial. The resulting two-phase mixture was kept in water bath shaker at 25 °C for 2 h and was strongly shaken to reach the partition equilibrium of the compound between the phases. Then the mixture was left unshaken for 30 min and 1.0 cm^3 of water phase was carefully taken out to centrifuge tube. The sample was next centrifuged for 10 min at 7500 rpm at 25 °C to ensure the most precise phase separation. The concentration of compound in water phase was then determined using HPLC method. The partition coefficient, log PO/W was calculated according to the formula: logPO/W=logC0V0−CWVW/CWVW where: C0—initial concentration of the compound in n-octanol, calculated based on the weighed mass of compound, mg·cm^−^3; V0—volume of n-octanol, cm^3; CW—concentration of the compound in water after partition equilibrium, mg·cm^−^3; VW—volume of water, cm^3.

[3] = DPPH radical scavenging assay of the compounds
Protocol: (§1) To determine the antioxidant capacity of ferulic acid and its derivatives the DPPH method was used. The analyses were performed using the Hitachi UV-Vis Spectrophotometer U-5100 at the wavelength λ = 517 nm. Trolox (6-hydroxy-2,5,7,8-tetramethylchroman-2-carboxylic acid) was used as a reference substance. The antioxidant activity was expressed as %RSA and mmol Trolox dm^−3. […]. Blank samples without antioxidant were prepared in the same way. The tubes were wrapped in aluminum foil and were sealed with a stopper and then incubated for 10 min at room temperature. After this time, spectrophotometric measurements were carried out in triplicate. For determination of antioxidant activity of the acceptor fluid after 24 h of permeation and solutions obtained by extraction of the skin obtained after penetration study, 0.15 mL samples of each solutions were separately added to 2.85 mL of DPPH solution and spectrophotometric measurements were performed. The antioxidant activity was expressed as mmol Trolox·dm^−3.

[4] = Skin permeation in Franz diffusion cells; format: in vitro ADME, pig; conditions: 24 h, 10 mg as FA applied
Protocol: In the experiment, abdominal porcine skin coming from the local slaughterhouse was used. Pig skin was chosen because of its similar permeability to human skin [34, 35]. The fresh abdominal porcine skin was washed several times in PBS buffer pH 7.4. The skin of 0.5 mm in thickness was dermatomed and divided into 2 cm × 2 cm pieces. The skin samples were wrapped in aluminum foil and stored at −20 °C until use, not longer than 3 months. According to Badran et al., this storage time at this temperature is safe to keep skin barrier properties. Immediately before the experiment, the skin samples were slowly thawed at room temperature for 30 min and then were hydrated by PBS pH 7.4 [37, 38, 39, 40]. Such prepared skin was mounted on donor chamber. Only the undamaged skin pieces with an even thickness were chosen for experiments. The integrity of the skin was checked by impedance measurement using an LCRmeter4080 (Conrad Electronic, Hirschau, Germany), operated in parallel mode at an alternating frequency of 120 Hz (error at kΩ values < 0.5%). The tips of measuring probes were immersed in the donor and acceptor chamber containing PBS (pH 7.4), as described previously. Only skin samples of impedance > 3 kΩ were applied as such impedance is similar to the electrical resistance of human skin [42].
The concentration of FA and its derivatives in the acceptor fluid and in the fluid obtained by skin extraction after permeation experiment was assessed using liquid chromatography system (Knauer, Berlin, Germany) consisting of a model 2600 UV detector, Smartline model 1050 pump and Smartline model 3950 autosampler. HPLC was controlled by ClarityChrom 2009 software. The detector was operated at 280 nm. The separations were performed on 125 mm × 4 mm ID chromatographic column filled with Hyperisil ODS (C18), particle size 5 µm, in isocratic mode. The mobile phase consisted of acetonitrile, 1% acetic acid, and MeOH (47/47/6 v/v/v) and was pumped at flow rate of 1 mL min^−1. The column temperature was set at 25 °C, and the injection volume was 20 µL.
(§2) The permeation experiments were performed using Franz diffusion cells (Phoenix DB-6, ABL&E-JASCO, Wien, Austria). The diffusion was 1 cm^2. The volume of the acceptor chamber was 8 mL. This chamber was filled with PBS solution (pH 7.4). During experiment, a constant temperature of 37.0 ± 0.5 °C was maintained in each diffusion unit. The acceptor chamber content was stirred with a magnetic stirring bar at the same speed for all cells. The prepared pig skin was mounted on each donor chamber. As previously mentioned, only undamaged skin pieces with an even thickness were chosen for experiments. Thereafter, the hydrogel or emulsion vehicle/preparation in 1 g portion was put on the skin in donor cells. For comparison, 1 mL ethanolic solution containing either FA or its derivatives was applied to another donor chamber. The amount of the FA and its derivatives applied on the skin expressed as the mass of ferulic acid was 0.01 g and was the same for each carrier. The penetration experiments were carried out for 24 h. The samples were collected after 1 h, 2 h, 3 h, 4 h, 5 h, 6 h, 8 h, and 24 h. Aliquots of the acceptor fluid (0.5 mL) were withdrawn and to each acceptor chamber the same volume of fresh PBS solution was added. The FA and its derivatives’ concentrations in the acceptor fluid were measured by HPLC method (Section 2.6.2). The cumulative mass (µg·cm^−2) and penetration rate (µg·cm^−2·h^−1) were calculated. The acceptor fluid collected after 24 h of permeation was also measured for antioxidant activity and total polyphenol content (as described in Section 2.5.1 and Section 2.5.2).

[5] = DPPH antioxidant activity of acceptor fluid after 24 h permeation; parameters: species or system pig; conditions: after 24 h penetration
Protocol: as §1, §2

[6] = DPPH antioxidant activity of solution obtained after skin extraction; parameters: species or system pig; conditions: after 24 h penetration
Protocol: as §1
The accumulation of the FA and its derivatives in the skin after 24 h permeation process through the skin were determined using a modification of the methods described by Janus et al. and Taokaew et al.. After 24 h of permeation experiment, the skin samples were removed from the Franz diffusion cell, washed three times with 0.5% sodium lauryl sulfate solution and dried at room temperature. Next, after cutting out the diffusion area of each skin sample, the samples were immersed in 2 mL of absolute ethanol and continuously stirred at 300 rpm at room temperature for 24 h. The samples were then centrifuged, and clear solutions were collected and analyzed by HPLC method for the determination of FA and its derivatives. The accumulation of the active substance in the skin was calculated by dividing the amount of the drug remaining in the skin by a mass of skin sample and was expressed in mass active substance per mass of the skin (µg g^−1). For solution obtained after skin extraction, the antioxidant activity and total polyphenol content were also determined (as described in Section 2.5.1 and Section 2.5.2).

[7] = Thermogravimetric (TG) analysis, thermal stability; format: physicochemical; conditions: air atmosphere, 10 °C·min^−1; for Td onset, the onset of decomposition: TG; for Td max, temperature of the fastest mass loss of the sample: TG/DTG
Protocol: Samples of 2–5 mg, loaded in aluminium crucibles, were heated from 30 °C to 600 °C at the heating rate of 10 °C·min^−1, in the air atmosphere (25 mL·min^−1) with nitrogen flow (10 mL·min^−1) as the purge gas.

[8] = system: UVB irradiated human melanocytes; parameters: method as in PMID 19274591; conditions: cited from earlier work
[9] = molar ratio antioxidant:DPPH 0.1, 10 min
[10] = molar ratio antioxidant:DPPH 1.0, 10 min
[11] = molar ratio antioxidant:DPPH 2.0, 10 min
[12] = from solution in 70% (v/v) ethanol

COc1cc(/C=C/CO)ccc1O [CA, coniferyl alcohol]
skin permeation compared with pure FA [1]: permeated the skin to a higher degree than pure FA

COc1cc(/C=C/C=O)ccc1O [CD, coniferyl aldehyde]
skin permeation compared with pure FA [1]: permeated the skin to a higher degree than pure FA

CCCOC(=O)CN.COc1cc(/C=C/C(=O)O)ccc1O [GPr[FA], glycine propyl ester ferulate]
Share of compound partitioned to n-octanol ([2]; from log PO/W): 79%
log PO/W [2]: 0.582 ± 0.019
Antioxidant activity %RSA [3, 9]: 17.6 ± 0.001 %RSA and 17.6 ± 0.001 a %RSA
Antioxidant activity, Trolox equivalents [3, 9]: 0.099 ± 0.001 mmol Trolox dm^−3 and 0.099 ± 0.001 a mmol Trolox dm^−3
Antioxidant activity %RSA [3, 10]: 78.0 ± 0.001 b %RSA
Antioxidant activity, Trolox equivalents [3, 10]: 0.681 ± 0.001 b mmol Trolox dm^−3
Antioxidant activity %RSA [3, 11]: 86.6 ± 0.001 %RSA and 86.6 ± 0.001 b %RSA
Antioxidant activity, Trolox equivalents [3, 11]: 0.764 ± 0.001 mmol Trolox dm^−3 and 0.764 ± 0.001 b mmol Trolox dm^−3
Cumulative Permeation Mass ([4]; from emulsion): 101.70 ± 26.47 a µg FA·cm^−2
Cumulative Permeation Mass ([4]; from hydrogel): 268.16 ± 12.71 a µg FA·cm^−2
Cumulative Permeation Mass [4, 12]: 378.26 ± 2.29 a µg FA·cm^−2
DPPH antioxidant activity of the acceptor fluid ([5]; emulsion): 0.059 ± 0.010 a mmol Trolox dm^−3
DPPH antioxidant activity of the acceptor fluid ([5]; ethanol solution): 0.097 ± 0.021 b mmol Trolox dm^−3
DPPH antioxidant activity of the acceptor fluid ([5]; hydrogel): 0.069 ± 0.002 a mmol Trolox dm^−3
DPPH antioxidant activity of the solution obtained after skin extraction ([6]; emulsion): 0.235 ± 0.037 a mmol Trolox dm^−3
DPPH antioxidant activity of the solution obtained after skin extraction ([6]; ethanol solution): 0.257 ± 0.026 a mmol Trolox dm^−3
DPPH antioxidant activity of the solution obtained after skin extraction ([6]; hydrogel): 0.298 ± 0.009 a mmol Trolox dm^−3
Td onset, the onset of decomposition [7]: 129.6 °C
Td max, temperature of the fastest mass loss of the sample [7]: 145.3 °C

CCCOC(=O)[C@@H](N)CC(C)C.COc1cc(/C=C/C(=O)O)ccc1O [LPr[FA], L-leucine propyl ester ferulate]
log PO/W [2]: 0.454 ± 0.009
Antioxidant activity %RSA [3, 9]: 17.6 ± 0.001 %RSA and 17.6 ± 0.001 a %RSA
Antioxidant activity, Trolox equivalents [3, 9]: 0.098 ± 0.001 mmol Trolox dm^−3 and 0.098 ± 0.001 a mmol Trolox dm^−3
Antioxidant activity %RSA [3, 10]: 79.5 ± 0.001 b %RSA
Antioxidant activity, Trolox equivalents [3, 10]: 0.696 ± 0.001 b mmol Trolox dm^−3
Antioxidant activity %RSA [3, 11]: 87.8 ± 0.001 %RSA and 87.8 ± 0.001 b %RSA
Antioxidant activity, Trolox equivalents [3, 11]: 0.776 ± 0.001 mmol Trolox dm^−3 and 0.776 ± 0.001 b mmol Trolox dm^−3
Cumulative Permeation Mass ([4]; from emulsion): 119.29 ± 19.72 a µg FA·cm^−2
Cumulative Permeation Mass ([4]; from hydrogel): 267.48 ± 24.57 a µg FA·cm^−2
Cumulative Permeation Mass [4, 12]: 415.12 ± 8.71 µg FA·cm^−2 and 415.12 ± 8.71 b µg FA·cm^−2
DPPH antioxidant activity of the acceptor fluid ([5]; emulsion): 0.053 ± 0.005 mmol Trolox dm^−3 and 0.053 ± 0.005 a mmol Trolox dm^−3
DPPH antioxidant activity of the acceptor fluid ([5]; ethanol solution): 0.098 ± 0.011 mmol Trolox dm^−3 and 0.098 ± 0.011 a mmol Trolox dm^−3
DPPH antioxidant activity of the acceptor fluid ([5]; hydrogel): 0.063 ± 0.009 mmol Trolox dm^−3 and 0.063 ± 0.009 a mmol Trolox dm^−3
DPPH antioxidant activity of the solution obtained after skin extraction ([6]; emulsion): 0.257 ± 0.014 ab mmol Trolox dm^−3
DPPH antioxidant activity of the solution obtained after skin extraction ([6]; ethanol solution): 0.255 ± 0.038 a mmol Trolox dm^−3
DPPH antioxidant activity of the solution obtained after skin extraction ([6]; ethanol solution, listed as Leu[FA]): 0.255 ± 0.038 mmol Trolox dm^−3
DPPH antioxidant activity of the solution obtained after skin extraction ([6]; hydrogel): 0.298 ± 0.009 mmol Trolox dm^−3 and 0.320 ± 0.030 ab mmol Trolox dm^−3
Td onset, the onset of decomposition [7]: 126.0 °C
Td max, temperature of the fastest mass loss of the sample [7]: 156.0 °C

CCOC(=O)/C=C/c1ccc(O)c(OC)c1 [FAEE, ferulic acid ethyl ester]
skin permeation compared with pure FA [1]: permeated the skin to a higher degree than pure FA
production of ROS [8]: reduced the production of ROS

From article PMC9861623, “New Ferulic Acid and Amino Acid Derivatives with Increased Cosmeceutical and Pharmaceutical Potential” (Pharmaceutics, 2022)
